Values after ≈ are worked out from the molar mass of the structure shown. Read-outs that look alike come from different tables or passages of the source.
Tests used:
cancer cell = test: Cancer cell viability, cell line not stated (per-compound ranges in description); type: cell-based; settings: 'In some embodiments', values worded 'about', read-out: EC50 in cancer cell viability (range stated in description)
Description: (§1) In another exemplary method, half maximal effective concentration (EC50) was determined for some compounds and their isomers as disclosed herein in a variety of human cancer cell lines. In brief, cells from two prostate cancer cell lines (LNCaP, 22RV1), one glioblastoma cell line (U87), one breast cancer cell line (MCF7), a glioma cell line (LN18), a normal prostate cell line (RWPE1), and a glioblastoma cell line (T98G) were plated in a multi-well plate. After 24 hours, one of the compounds herein was added to the well at increasing concentrations. After 72 hours of treatment, cell viability was assessed using AlamrBlue® (Invitrogen) and fluorescence was read using the CLARIOstar Plus Multilabel Plate Reader (BMG Labtech). Samples were normalized to no treatment controls. EC50 values were determined using GraphPad Prism.

[1] = Kinetic solubility in aqueous PBS buffer (HPLC-MS); type: physicochemical; settings: kinetic from dmso stock
Description: In another exemplary method, central nervous system multiparameter optimization (CNS MPO) score and kinetic solubility of selected compounds was determined. CNS MPO score for compounds and their isomers disclosed herein were calculated using an algorithm that uses a weighted scoring function assessing 6 key physicochemical properties (clogP, clogD, MW, TPSA, HBD, and pKa) for blood-brain-barrier (BBB penetration). CNS MPO score ranged from 0 and 6.0 with scores≥4.0 used as a cut-off to select compounds that can have a high probability of accumulating in the CNS. Kinetic solubility of a compound is the maximum solubility of the fastest precipitating species of the compound. Kinetic solubility was determined by preparing a concentrated stock solution for compounds and their isomers disclosed herein in an organic solvent (DMSO), after which the solution was mixed with an aqueous PBS buffer and then filtered. Filtrate was tested to quantify the kinetic solubilty using HPLC-MS calibration curve. The CNS MPO Score and kinetic solubility of the compounds tested are provided in Table 7 where “ND” means not determined.

U87 cells = test: Cell viability (AlamarBlue), U87 glioblastoma cells; type: cell-based, human; parameters: key to EC50 (μM) in U87 cells: Inactive: less than 50% inhibition at the highest concentration tested at 50 μM; settings: 72 hours of treatment
Method in brief: (§2)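 Cells were plated, and compounds were added at increasing concentrations after 24 h. Viability was measured by AlamarBlue fluorescence after 72 h of treatment and normalized to untreated controls to fit EC50.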

22RV1 cells = test: Cell viability (AlamarBlue), 22RV1 prostate cancer cells; type: cell-based, human; parameters: key to EC50 (μM) in 22RV1 cells: Inactive: less than 50% inhibition at the highest concentration tested at 50 μM; settings: 72 hours of treatment
Method in brief: as §2

LNCaP cells = test: Cell viability (AlamarBlue), LNCaP prostate cancer cells; type: cell-based, human; parameters: key to EC50 (μM) in LNCaP cells: Inactive: less than 50% inhibition at the highest concentration tested at 50 μM; settings: 72 hours of treatment
Method in brief: as §2

RWPE1 cells = test: Cell viability (AlamarBlue), RWPE1 normal prostate cells; type: cell-based, human; parameters: key to EC50 (μM) in RWPE1 cells: Inactive: less than 50% inhibition at the highest concentration tested at 50 μM; settings: normal prostate cell line; for EC50 (μM) in RWPE1 cells: 72 hours of treatment; for EC50: Homo sapiens, RWPE-1, 72 hours of treatment
Description: as §1

[2] = 'In some embodiments', values worded 'about', read-out: kinetic solubility (range stated in description)

## COC12CC(C(=O)NC(=O)Nc3ccc(C)c(Oc4ncccn4)c3)(C1)C2 [drawing 283, 3-methoxy-N-((4-methyl-3-(pyrimidin-2-yloxy)phenyl)carbamoyl)bicyclo[1.1.1]pentane-1-carboxamide]
Cancer cell
  EC50: 0.011 to 0.02 µM
[1]; [2]
  solubility kinetic: 4 to 8 µM (≈ 1.47 to 2.95 µg/mL)

## COC12CC(C(=O)NC(=O)Nc3ccc(Oc4ccc(F)cn4)c(C)c3)(C1)C2 [drawing 276, N-((4-((5-fluoropyridin-2-yl)oxy)-3-methylphenyl)carbamoyl)-3-methoxybicyclo[1.1.1]pentane-1-carboxamide]
Cancer cell
  EC50: 0.05 to 0.35 µM

## COC1CC(C(=O)NC(=O)Nc2ccc(C)c(Oc3nccs3)c2)C1 (centres unmarked) [drawing 279, 3-methoxy-N-((4-methyl-3-(thiazol-2-yloxy)phenyl)carbamoyl)cyclobutane-1-carboxamide]
Cancer cell
  EC50: 0.01 to 0.05 µM
[1]; [2]
  solubility kinetic: 7 to 11 µM (≈ 2.53 to 3.98 µg/mL)

## COC1CC(C(=O)NC(=O)Nc2ccc(Oc3ccc(Cl)cn3)c(C)c2)C1 (single isomer, unassigned) [Compound 19B, 1-{4-[(5-chloropyridin-2-yl)oxy]-3-methylphenyl}-3-(3-methoxycyclobutanecarbonyl) urea]
U87 cells
  EC50: 13.7 µM
22RV1 cells
  EC50: 4.2 µM
LNCaP cells
  EC50: 1.3 µM
RWPE1 cells
  EC50 (μM) in RWPE1 cells: Inactive

## COC12CC(C(=O)NC(=O)Nc3ccc(Oc4ccc(Cl)cn4)c(C)c3)(C1)C2 [drawing 271, N-((4-((5-chloropyridin-2-yl)oxy)-3-methylphenyl)carbamoyl)-3-methoxybicyclo[1.1.1]pentane-1-carboxamide]
Cancer cell
  EC50: 0.01 to 0.16 µM

## COC1CC(C(=O)NC(=O)Nc2ccc(Oc3ccc(F)cn3)c(C)c2)C1 (single isomer, unassigned) [Compound 15B, N-((4-((5-fluoropyridin-2-yl)oxy)-3-methylphenyl)carbamoyl)-3-methoxycyclobutanecarboxamide]
U87 cells
  EC50: 22 µM
22RV1 cells
  EC50: 17.3 µM
LNCaP cells
  EC50: 3.9 µM
RWPE1 cells
  EC50 (μM) in RWPE1 cells: Inactive

## COC1CCC(C(=O)NC(=O)Nc2ccc(Oc3ncco3)c(C)c2)CC1 (centres unmarked) [Compound 21, 1-(4-methoxycyclohexanecarbonyl)-3-[3-methyl-4-(1,3-oxazol-2-yloxy)phenyl]urea]
U87 cells; Homo sapiens, U-87 MG, 72 h
  EC50: 20.8 µM
22RV1 cells; Homo sapiens, 22Rv1, 72 h
  EC50: 24 µM
LNCaP cells; Homo sapiens, LNCaP, 72 h
  EC50: 19.7 µM
RWPE1 cells
  EC50: 33 µM

## COC12CC(C(=O)NC(=O)Nc3cc(C)c(Oc4ccc(F)cn4)c(F)c3)(C1)C2 [drawing 278, N-((3-fluoro-4-((5-fluoropyridin-2-yl)oxy)-5-methylphenyl)carbamoyl)-3-methoxybicyclo[1.1.1]pentane-1-carboxamide]
Cancer cell
  EC50: 0.087 to 0.63 µM

## COC12CC(C(=O)NC(=O)Nc3ccc(Oc4ccccn4)c(C)c3)(C1)C2 [drawing 273, 3-methoxy-N-((3-methyl-4-(pyridin-2-yloxy)phenyl)carbamoyl)bicyclo[1.1.1]pentane-1-carboxamide]
Cancer cell
  EC50: 0.1 to 0.4 µM

## COC1CC(C(=O)NC(=O)Nc2ccc(Oc3ccc(C#N)cn3)c(C)c2)C1 (single isomer, unassigned) [Compound 16B, N-((4-((5-cyanopyridin-2-yl)oxy)-3-methylphenyl)carbamoyl)-3-methoxycyclobutane-1-carboxamide]
U87 cells
  EC50: 24 µM
22RV1 cells
  EC50: 21.2 µM
LNCaP cells
  EC50: 5 µM
RWPE1 cells
  EC50 (μM) in RWPE1 cells: Inactive

## COC1CCC(C(=O)NC(=O)Nc2ccc(Oc3ncc(Cl)cn3)c(F)c2)CC1 (single isomer, unassigned) [Compound 14A, N-((4-((5-chloropyrimidin-2-yl)oxy)-3-fluorophenyl)carbamoyl)-4-methoxycyclohexane-1-carboxamide]
U87 cells; Homo sapiens, U-87 MG, 72 h
  EC50: 1.3 µM
22RV1 cells; Homo sapiens, 22Rv1, 72 h
  EC50: 1.1 µM
LNCaP cells; Homo sapiens, LNCaP, 72 h
  EC50: 1.8 µM
RWPE1 cells
  EC50: 1.3 µM

## COC1CC(C(=O)NC(=O)Nc2ccc(Oc3nccs3)c(C)c2)C1 (single isomer, unassigned) [Compound 45B, 3-methoxy-N-((3-methyl-4-(thiazol-2-yloxy)phenyl)carbamoyl)cyclobutane-1-carboxamide]
U87 cells
  EC50: 12.2 µM
22RV1 cells
  EC50: 14.2 µM
LNCaP cells
  EC50: 4 µM
RWPE1 cells
  EC50 (μM) in RWPE1 cells: Inactive

## COC1CC(C(=O)NC(=O)Nc2ccc(Oc3nc4ccccc4s3)c(C)c2)C1 (centres unmarked) [Compound 56, N-((4-(benzo[d]thiazol-2-yloxy)-3-methylphenyl)carbamoyl)-3-methoxycyclobutane-1-carboxamide]
U87 cells; Homo sapiens, U-87 MG, 72 h
  EC50: 0.89 µM
22RV1 cells; Homo sapiens, 22Rv1, 72 h
  EC50: 0.35 µM
[1]; DMSO stock mixed with aqueous PBS buffer, filtered, read-out: Kinetic Solubility
  solubility kinetic: 1 µM (≈ 0.411 µg/mL)
LNCaP cells; Homo sapiens, LNCaP, 72 h
  EC50: 0.15 µM
RWPE1 cells
  EC50: 22.4 µM

## O=C(NC(=O)C1CCCCC1)Nc1ccc(Oc2ncc(Cl)cn2)c(F)c1 [Compound 70, N-((4-((5-chloropyrimidin-2-yl)oxy)-3-fluorophenyl)carbamoyl)cyclohexanecarboxamide]
U87 cells
  EC50 (μM) in U87 cells: Inactive
22RV1 cells
  EC50 (μM) in 22RV1 cells: Inactive
LNCaP cells
  EC50 (μM) in LNCaP cells: Inactive
RWPE1 cells
  EC50 (μM) in RWPE1 cells: Inactive

## COC12CC(C(=O)NC(=O)Nc3ccc(Oc4ncccn4)c(C)c3)(C1)C2 [drawing 274, 3-methoxy-N-((3-methyl-4-(pyrimidin-2-yloxy)phenyl)carbamoyl)bicyclo[1.1.1]pentane-1-carboxamide]
Cancer cell
  EC50: 0.5 to 4 µM
[1]; [2]
  solubility kinetic: 25 to 30 µM (≈ 9.21 to 11.1 µg/mL)

## COC1CC(C(=O)NC(=O)Nc2ccc(Oc3ncc(Cl)cn3)c(C)c2)C1 (single isomer, unassigned) [Compound 20B, N-((4-((5-chloropyrimidin-2-yl)oxy)-3-methylphenyl)carbamoyl)-3-methoxycyclobutane-1-carboxamide]
U87 cells
  EC50: 31.2 µM
22RV1 cells
  EC50: 15.3 µM
LNCaP cells
  EC50: 5 µM
RWPE1 cells
  EC50 (μM) in RWPE1 cells: Inactive

## COC12CC(C(=O)NC(=O)Nc3ccc(Oc4nccs4)c(C)c3)(C1)C2 [drawing 270, 3-methoxy-N-((3-methyl-4-(thiazol-2-yloxy)phenyl)carbamoyl)bicyclo[1.1.1]pentane-1-carboxamide]
Cancer cell
  EC50: 0.04 to 0.08 µM
[1]; [2]
  solubility kinetic: 1.5 to 3.5 µM (≈ 0.56 to 1.31 µg/mL)

## COC12CC(C(=O)NC(=O)Nc3cc(C)c(Oc4ncc(Cl)cn4)c(F)c3)(C1)C2 [drawing 277, N-((4-((5-chloropyrimidin-2-yl)oxy)-3-fluoro-5-methylphenyl)carbamoyl)-3-methoxybicyclo[1.1.1]pentane-1-carboxamide]
Cancer cell
  EC50: 0.034 to 0.065 µM
[1]; [2]
  solubility kinetic: 1.5 to 3.5 µM (≈ 0.631 to 1.47 µg/mL)

## COC1CCC(C(=O)NC(=O)Nc2ccc(Oc3cccnn3)c(C)c2)CC1 (centres unmarked) [Compound 22, 1-(4-methoxycyclohexanecarbonyl)-3-[3-methyl-4-(pyridazin-3-yloxy)phenyl]urea]
U87 cells
  EC50 (μM) in U87 cells: Inactive
22RV1 cells
  EC50 (μM) in 22RV1 cells: Inactive
LNCaP cells
  EC50 (μM) in LNCaP cells: Inactive
RWPE1 cells
  EC50 (μM) in RWPE1 cells: Inactive

## COC1CC(C(=O)NC(=O)Nc2ccc(C)c(Oc3ccc(F)cn3)c2)C1 (centres unmarked) [drawing 281, N-((3-((5-fluoropyridin-2-yl)oxy)-4-methylphenyl)carbamoyl)-3-methoxycyclobutane-1-carboxamide]
Cancer cell
  EC50: 0.005 to 0.03 µM
[1]; [2]
  solubility kinetic: 5 to 9 µM (≈ 1.87 to 3.36 µg/mL)

## COC1CCC(C(=O)NC(=O)Nc2ccc(Oc3ncc(Cl)cn3)cc2F)CC1 (centres unmarked) [Compound 23, 3-{4-[(5-chloropyrimidin-2-yl)oxy]-2-fluorophenyl}-1-(4-methoxycyclohexanecarbonyl)urea]
U87 cells
  EC50 (μM) in U87 cells: Inactive
22RV1 cells; Homo sapiens, 22Rv1, 72 h
  EC50: 30.6 µM
LNCaP cells
  EC50 (μM) in LNCaP cells: Inactive
RWPE1 cells
  EC50 (μM) in RWPE1 cells: Inactive

## COC1CC(C(=O)NC(=O)Nc2ccc(C)c(Oc3ncccn3)c2)C1 (centres unmarked) [drawing 282, 3-methoxy-N-((4-methyl-3-(pyrimidin-2-yloxy)phenyl)carbamoyl)cyclobutane-1-carboxamide]
Cancer cell
  EC50: 0.02 to 0.06 µM
[1]; [2]
  solubility kinetic: 13 to 17 µM (≈ 4.63 to 6.06 µg/mL)

## COC1CCC(C(=O)NC(=O)Nc2ccc(Oc3ccc(Cl)cn3)cc2F)CC1 (centres unmarked) [Compound 24, 3-{4-[(5-chloropyridin-2-yl)oxy]-2-fluorophenyl}-1-(4-methoxycyclohexanecarbonyl)urea]
U87 cells
  EC50 (μM) in U87 cells: Inactive
22RV1 cells
  EC50 (μM) in 22RV1 cells: Inactive
LNCaP cells
  EC50 (μM) in LNCaP cells: Inactive
RWPE1 cells
  EC50: 31 µM

## COC12CC(C(=O)NC(=O)Nc3ccc(C)c(Oc4ccccn4)c3)(C1)C2 [drawing 284, 3-methoxy-N-((4-methyl-3-(pyridin-2-yloxy)phenyl)carbamoyl)bicyclo[1.1.1]pentane-1-carboxamide]
Cancer cell
  EC50: 0.02 to 0.07 µM

Reference: patent US12404242B2, “Compositions and methods for making and using small molecules in the treatment of cancer” (Reglagene, Inc., priority 2021, dated 2025)
